According to publication PMC4457528, “Identification of Novel Small Molecule Inhibitors of Oncogenic RET Kinase” (PLoS ONE, 2015):

Key:
Experiment in all cases: KinomeScan kinase panel, single concentration 10 µM
Assay type in all cases: binding
KinomeScan kinase panel [1] = target: T1, KinomeScan kinase panel (Homo sapiens, UniProt Q8N4C8); conditions: MINK, 10 µM; read-out: score (%)
T1 construct: purchased DiscoveRx (KinomeScan)

KinomeScan kinase panel [2] = target: T2, KinomeScan kinase panel (Homo sapiens, UniProt Q9UM73); conditions: ALK, 10 µM; read-out: score (%)
T2 construct: purchased DiscoveRx (KinomeScan)

KinomeScan kinase panel [3] = target: T3, KinomeScan kinase panel (Homo sapiens, UniProt Q8IWQ3); conditions: BRSK2, 10 µM; read-out: score (%)
T3 construct: purchased DiscoveRx (KinomeScan)
T3 sequence (Q8IWQ3 1-736): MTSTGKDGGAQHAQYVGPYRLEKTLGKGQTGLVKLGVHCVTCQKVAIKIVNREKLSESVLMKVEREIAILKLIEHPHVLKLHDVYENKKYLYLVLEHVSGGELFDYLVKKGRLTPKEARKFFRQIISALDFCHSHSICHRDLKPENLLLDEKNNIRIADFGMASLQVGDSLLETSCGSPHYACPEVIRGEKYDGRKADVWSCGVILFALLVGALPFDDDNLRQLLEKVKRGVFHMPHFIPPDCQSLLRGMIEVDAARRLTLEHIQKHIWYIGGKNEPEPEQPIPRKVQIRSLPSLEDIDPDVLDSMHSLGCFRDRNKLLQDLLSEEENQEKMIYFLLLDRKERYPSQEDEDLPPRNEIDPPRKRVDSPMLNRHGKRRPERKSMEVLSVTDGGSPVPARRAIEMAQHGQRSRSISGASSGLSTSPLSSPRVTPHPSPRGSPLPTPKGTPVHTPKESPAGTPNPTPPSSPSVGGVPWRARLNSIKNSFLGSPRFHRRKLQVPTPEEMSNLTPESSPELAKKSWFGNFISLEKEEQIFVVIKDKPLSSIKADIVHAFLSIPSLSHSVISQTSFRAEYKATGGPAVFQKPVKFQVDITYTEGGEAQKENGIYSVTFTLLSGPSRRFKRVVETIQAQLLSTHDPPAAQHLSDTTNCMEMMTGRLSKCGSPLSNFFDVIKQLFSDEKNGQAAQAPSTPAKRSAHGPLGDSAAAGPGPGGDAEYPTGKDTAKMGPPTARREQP

KinomeScan kinase panel [4] = target: T4, KinomeScan kinase panel (Homo sapiens, UniProt P36888, D835Y); conditions: FLT3(D835Y), 10 µM; read-out: score (%)
T4 construct: purchased DiscoveRx (KinomeScan)
T4 sequence (P36888 27-993 D835Y): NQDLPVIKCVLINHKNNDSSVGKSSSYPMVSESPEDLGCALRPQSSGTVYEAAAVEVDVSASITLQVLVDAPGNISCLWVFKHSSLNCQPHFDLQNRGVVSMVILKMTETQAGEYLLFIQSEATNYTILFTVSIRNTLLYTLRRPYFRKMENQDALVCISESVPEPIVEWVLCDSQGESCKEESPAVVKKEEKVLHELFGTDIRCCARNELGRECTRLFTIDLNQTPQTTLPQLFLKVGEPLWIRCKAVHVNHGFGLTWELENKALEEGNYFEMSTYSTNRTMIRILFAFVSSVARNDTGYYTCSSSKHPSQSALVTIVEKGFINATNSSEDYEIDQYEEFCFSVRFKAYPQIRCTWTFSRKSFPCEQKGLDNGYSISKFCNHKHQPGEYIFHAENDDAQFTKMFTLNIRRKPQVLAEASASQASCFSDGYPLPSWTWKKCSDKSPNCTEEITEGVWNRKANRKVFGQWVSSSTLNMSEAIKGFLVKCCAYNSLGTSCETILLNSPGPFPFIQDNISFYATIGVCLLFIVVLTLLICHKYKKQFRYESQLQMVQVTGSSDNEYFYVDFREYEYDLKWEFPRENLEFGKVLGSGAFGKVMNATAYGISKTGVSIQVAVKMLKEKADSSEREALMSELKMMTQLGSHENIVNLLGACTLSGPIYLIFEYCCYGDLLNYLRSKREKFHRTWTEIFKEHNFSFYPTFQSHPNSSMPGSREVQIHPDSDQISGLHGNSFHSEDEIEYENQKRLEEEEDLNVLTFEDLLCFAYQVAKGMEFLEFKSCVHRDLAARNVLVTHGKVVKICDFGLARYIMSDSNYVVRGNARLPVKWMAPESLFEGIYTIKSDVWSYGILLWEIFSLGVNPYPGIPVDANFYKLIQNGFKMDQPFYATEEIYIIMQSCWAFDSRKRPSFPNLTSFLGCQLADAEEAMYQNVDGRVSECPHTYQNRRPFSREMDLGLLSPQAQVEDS

KinomeScan kinase panel [5] = target: T5, KinomeScan kinase panel (Homo sapiens, UniProt Q13555); conditions: CAMK2G, 10 µM; read-out: score (%)
T5 construct: purchased DiscoveRx (KinomeScan)

KinomeScan kinase panel [6] = target: T6, KinomeScan kinase panel (Homo sapiens, UniProt P00533, G719C); conditions: EGFR(G719C), 10 µM
T6 construct: purchased DiscoveRx (KinomeScan)

KinomeScan kinase panel [7] = target: T7, KinomeScan kinase panel (Homo sapiens, UniProt P51955); conditions: NEK2, 10 µM; read-out: score (%)
T7 construct: purchased DiscoveRx (KinomeScan)
T7 sequence (P51955 1-445): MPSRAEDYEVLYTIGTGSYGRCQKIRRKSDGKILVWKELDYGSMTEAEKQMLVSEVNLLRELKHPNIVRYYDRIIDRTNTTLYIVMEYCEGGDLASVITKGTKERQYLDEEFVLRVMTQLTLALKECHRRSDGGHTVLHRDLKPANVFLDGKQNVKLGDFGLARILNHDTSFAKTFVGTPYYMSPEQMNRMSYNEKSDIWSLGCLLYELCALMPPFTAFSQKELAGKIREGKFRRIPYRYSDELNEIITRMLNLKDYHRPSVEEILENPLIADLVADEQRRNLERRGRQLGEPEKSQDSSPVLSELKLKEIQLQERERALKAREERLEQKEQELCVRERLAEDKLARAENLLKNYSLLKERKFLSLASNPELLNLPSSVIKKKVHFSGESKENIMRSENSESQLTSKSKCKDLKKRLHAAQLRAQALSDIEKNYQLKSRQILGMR

KinomeScan kinase panel [8] = target: T8, KinomeScan kinase panel (Homo sapiens, UniProt Q5VT25); conditions: MRCKA, 10 µM; read-out: score (%)
T8 construct: purchased DiscoveRx (KinomeScan)
T8 sequence (Q5VT25 whole entry): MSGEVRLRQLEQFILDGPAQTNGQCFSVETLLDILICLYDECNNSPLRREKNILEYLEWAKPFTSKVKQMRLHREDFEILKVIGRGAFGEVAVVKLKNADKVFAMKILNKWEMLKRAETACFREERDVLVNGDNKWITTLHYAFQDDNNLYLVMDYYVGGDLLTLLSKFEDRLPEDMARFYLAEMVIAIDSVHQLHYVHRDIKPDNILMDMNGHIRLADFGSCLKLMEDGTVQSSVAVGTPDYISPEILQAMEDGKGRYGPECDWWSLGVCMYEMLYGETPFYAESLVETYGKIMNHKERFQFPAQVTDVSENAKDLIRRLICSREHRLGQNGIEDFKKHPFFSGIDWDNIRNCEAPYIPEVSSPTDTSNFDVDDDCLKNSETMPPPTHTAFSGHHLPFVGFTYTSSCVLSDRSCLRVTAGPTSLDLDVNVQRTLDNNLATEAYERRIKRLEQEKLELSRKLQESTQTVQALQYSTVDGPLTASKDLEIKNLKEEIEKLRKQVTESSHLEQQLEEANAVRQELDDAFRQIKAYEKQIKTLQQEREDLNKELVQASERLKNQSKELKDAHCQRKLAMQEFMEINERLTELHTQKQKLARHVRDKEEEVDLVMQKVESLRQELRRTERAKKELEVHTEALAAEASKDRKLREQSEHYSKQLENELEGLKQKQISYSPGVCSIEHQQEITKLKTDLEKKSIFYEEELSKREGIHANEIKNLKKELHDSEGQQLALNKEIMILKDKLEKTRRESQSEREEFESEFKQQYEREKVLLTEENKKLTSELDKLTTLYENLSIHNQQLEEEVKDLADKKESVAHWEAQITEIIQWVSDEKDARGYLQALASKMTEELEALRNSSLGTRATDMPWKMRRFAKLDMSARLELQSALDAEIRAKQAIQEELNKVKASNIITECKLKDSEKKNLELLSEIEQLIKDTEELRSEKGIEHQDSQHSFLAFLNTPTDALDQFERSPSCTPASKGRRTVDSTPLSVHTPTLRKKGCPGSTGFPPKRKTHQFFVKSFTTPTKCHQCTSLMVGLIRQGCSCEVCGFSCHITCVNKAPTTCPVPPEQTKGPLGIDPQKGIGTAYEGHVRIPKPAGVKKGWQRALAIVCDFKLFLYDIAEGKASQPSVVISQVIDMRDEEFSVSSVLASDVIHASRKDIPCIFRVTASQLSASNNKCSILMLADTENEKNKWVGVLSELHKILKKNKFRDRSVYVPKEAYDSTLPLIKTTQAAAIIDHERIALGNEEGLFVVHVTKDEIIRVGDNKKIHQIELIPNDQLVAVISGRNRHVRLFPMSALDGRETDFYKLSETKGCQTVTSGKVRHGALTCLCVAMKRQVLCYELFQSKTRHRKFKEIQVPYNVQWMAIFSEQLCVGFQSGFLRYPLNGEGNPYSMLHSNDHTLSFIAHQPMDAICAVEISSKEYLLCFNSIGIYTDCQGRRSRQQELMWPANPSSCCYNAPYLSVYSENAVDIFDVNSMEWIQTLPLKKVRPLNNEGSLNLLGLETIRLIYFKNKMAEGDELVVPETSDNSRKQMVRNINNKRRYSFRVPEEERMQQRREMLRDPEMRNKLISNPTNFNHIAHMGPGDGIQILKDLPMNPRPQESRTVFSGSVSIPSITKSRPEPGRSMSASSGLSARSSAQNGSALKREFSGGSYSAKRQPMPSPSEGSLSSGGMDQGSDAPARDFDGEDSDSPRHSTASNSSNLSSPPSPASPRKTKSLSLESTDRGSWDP

T5 sequence (Q13555 whole entry): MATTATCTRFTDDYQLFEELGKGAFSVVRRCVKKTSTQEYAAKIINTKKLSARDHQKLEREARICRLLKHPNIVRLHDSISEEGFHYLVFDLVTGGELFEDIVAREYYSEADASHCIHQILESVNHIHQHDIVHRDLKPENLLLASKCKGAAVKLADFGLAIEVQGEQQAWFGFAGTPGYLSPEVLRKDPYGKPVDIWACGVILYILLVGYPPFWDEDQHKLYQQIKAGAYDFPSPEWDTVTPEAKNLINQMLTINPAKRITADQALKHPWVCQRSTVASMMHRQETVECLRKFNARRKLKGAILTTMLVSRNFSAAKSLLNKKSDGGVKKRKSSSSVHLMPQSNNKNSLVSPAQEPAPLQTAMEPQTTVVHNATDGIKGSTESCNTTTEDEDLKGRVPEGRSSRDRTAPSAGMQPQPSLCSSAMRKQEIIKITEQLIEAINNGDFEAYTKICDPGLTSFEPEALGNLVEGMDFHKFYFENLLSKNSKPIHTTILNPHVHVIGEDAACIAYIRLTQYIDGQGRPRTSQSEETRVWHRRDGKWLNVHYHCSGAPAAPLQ
T6 sequence (P00533 25-1210 G719C): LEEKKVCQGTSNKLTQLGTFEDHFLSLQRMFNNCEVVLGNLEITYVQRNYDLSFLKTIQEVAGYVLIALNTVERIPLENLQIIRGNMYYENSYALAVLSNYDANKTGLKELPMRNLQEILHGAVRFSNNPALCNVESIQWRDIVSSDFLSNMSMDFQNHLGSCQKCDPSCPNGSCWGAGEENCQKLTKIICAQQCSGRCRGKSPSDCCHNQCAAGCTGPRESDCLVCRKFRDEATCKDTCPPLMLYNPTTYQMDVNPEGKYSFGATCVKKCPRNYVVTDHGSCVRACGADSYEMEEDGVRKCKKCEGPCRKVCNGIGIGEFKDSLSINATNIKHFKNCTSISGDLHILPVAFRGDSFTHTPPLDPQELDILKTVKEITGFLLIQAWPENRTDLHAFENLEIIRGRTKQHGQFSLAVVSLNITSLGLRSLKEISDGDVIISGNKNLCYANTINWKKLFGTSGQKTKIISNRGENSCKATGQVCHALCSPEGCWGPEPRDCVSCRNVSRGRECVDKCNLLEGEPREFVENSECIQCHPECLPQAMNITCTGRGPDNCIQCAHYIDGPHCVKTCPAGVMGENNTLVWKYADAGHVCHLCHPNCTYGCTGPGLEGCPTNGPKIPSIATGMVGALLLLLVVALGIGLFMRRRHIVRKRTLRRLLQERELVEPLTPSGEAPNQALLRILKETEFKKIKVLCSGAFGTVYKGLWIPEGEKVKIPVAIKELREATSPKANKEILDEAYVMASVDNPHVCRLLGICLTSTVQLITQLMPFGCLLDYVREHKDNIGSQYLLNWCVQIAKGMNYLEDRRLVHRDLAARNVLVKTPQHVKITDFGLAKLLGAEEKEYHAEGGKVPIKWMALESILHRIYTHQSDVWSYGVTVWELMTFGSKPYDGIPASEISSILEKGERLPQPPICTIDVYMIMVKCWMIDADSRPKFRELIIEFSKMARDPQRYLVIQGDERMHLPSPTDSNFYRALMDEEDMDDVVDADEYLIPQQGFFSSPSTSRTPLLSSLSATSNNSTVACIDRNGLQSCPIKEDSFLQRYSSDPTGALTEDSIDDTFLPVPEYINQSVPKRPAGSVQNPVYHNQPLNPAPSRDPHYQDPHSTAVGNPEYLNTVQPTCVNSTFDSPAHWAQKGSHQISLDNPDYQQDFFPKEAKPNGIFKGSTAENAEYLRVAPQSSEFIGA
T2 sequence (Q9UM73 19-1620): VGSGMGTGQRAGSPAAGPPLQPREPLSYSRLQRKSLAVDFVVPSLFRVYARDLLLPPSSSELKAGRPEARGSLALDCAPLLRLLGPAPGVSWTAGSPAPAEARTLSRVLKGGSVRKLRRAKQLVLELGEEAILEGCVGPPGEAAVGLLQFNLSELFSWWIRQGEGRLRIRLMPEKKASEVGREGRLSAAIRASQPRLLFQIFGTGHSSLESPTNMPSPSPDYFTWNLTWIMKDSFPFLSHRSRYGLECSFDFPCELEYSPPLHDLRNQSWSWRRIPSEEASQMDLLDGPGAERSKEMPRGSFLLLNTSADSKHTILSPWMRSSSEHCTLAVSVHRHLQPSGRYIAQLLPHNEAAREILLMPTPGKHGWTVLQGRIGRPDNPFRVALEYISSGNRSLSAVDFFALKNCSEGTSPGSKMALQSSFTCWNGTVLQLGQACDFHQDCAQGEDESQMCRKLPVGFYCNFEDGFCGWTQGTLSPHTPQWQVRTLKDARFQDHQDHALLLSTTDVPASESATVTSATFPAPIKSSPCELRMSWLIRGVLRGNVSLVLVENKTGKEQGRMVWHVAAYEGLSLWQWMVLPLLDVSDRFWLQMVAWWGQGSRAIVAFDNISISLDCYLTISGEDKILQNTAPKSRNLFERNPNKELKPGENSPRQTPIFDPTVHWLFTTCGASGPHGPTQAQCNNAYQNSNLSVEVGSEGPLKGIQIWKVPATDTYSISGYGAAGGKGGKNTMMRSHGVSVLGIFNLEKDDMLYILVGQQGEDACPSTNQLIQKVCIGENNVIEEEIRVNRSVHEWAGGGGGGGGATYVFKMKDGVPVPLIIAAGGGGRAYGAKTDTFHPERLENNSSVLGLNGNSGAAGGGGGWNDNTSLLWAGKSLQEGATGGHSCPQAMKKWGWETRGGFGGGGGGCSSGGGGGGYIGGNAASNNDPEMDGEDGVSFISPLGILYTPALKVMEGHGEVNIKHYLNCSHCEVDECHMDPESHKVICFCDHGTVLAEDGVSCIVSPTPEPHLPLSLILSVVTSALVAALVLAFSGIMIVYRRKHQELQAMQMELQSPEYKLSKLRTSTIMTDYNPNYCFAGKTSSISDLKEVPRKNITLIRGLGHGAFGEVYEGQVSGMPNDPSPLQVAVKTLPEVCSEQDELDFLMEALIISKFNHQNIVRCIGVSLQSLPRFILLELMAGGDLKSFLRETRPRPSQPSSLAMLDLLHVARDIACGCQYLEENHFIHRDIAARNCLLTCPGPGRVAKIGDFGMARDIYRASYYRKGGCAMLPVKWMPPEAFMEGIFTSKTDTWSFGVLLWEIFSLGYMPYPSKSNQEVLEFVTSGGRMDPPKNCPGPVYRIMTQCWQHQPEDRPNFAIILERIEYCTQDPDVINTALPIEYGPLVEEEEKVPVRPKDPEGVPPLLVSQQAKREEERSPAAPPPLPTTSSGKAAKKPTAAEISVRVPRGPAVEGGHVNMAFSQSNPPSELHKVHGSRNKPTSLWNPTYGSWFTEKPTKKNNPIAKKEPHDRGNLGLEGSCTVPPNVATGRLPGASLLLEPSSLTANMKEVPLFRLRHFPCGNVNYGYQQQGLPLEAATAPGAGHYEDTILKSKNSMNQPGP

SMILES	remaining binding at 10 µM (KinomeScan kinase panel [1]) [%]	remaining binding at 10 µM (KinomeScan kinase panel [2]) [%]	remaining binding at 10 µM (KinomeScan kinase panel [3]) [%]	remaining binding at 10 µM (KinomeScan kinase panel [4]) [%]	remaining binding at 10 µM (KinomeScan kinase panel [5]) [%]	score (%) (KinomeScan kinase panel [6])	remaining binding at 10 µM (KinomeScan kinase panel [7]) [%]	remaining binding at 10 µM (KinomeScan kinase panel [8]) [%]
CCN1CCN(Cc2ccc(NC(=O)c3ccc(C)c(NC(=O)c4cncc(-c5cccs5)c4)c3)cc2C(F)(F)F)CC1 [ALW-II-41-27]	0.65	> 30	> 30	3.3	> 30	0.15	> 30	> 30
CCN1CCN(Cc2ccc(NC(=O)c3ccc(C)c(/C=C/c4cnc5[nH]ccc5c4Cl)c3)cc2C(F)(F)F)CC1 [HG-6-63-01, (E)-3-(2-(4-chloro-1H-pyrrolo[2,3-b]pyridin-5-yl)vinyl)-N-(4-((4-ethylpiperazin-1-yl)methyl)-3-(trifluoromethyl)phenyl)-4-methylbenzamide]	4.2	> 30	> 30	0.85	> 30	0.1	> 30	12
CCN1CCN(Cc2ccc(NC(=O)c3ccc(C)c(C#Cc4cccnc4)c3)cc2C(F)(F)F)CC1 [XMD15-44]	2.5	23	> 30	0.5	> 30	0.75	> 30	> 30
